Literature values as cited in patent publication US6548637B1, “Ligands for opioid receptors” (Sepracor, Inc., priority 1998, dated 2003).

Tested on: mice
Conditions: intracerebroventricular injections to mice

SMILES | ED50 (analgesia) [µg]
NC(=O)[C@H](Cc1ccccc1)NC(=O)[C@H](Cc1c[nH]c2ccccc12)NC(=O)C1CCCN1C(=O)[C@@H](N)Cc1ccc(O)cc1 (stereo partly drawn) [Example 1, Tyr-Pro-Trp-Phe-NH2] | 8.4
NC(=O)C(Cc1ccccc1)NC(=O)[C@H](Cc1ccccc1)NC(=O)C1CCCN1C(=O)[C@@H](N)Cc1ccc(O)cc1 (stereo partly drawn) [Example 2, Tyr-Pro-Phe-Phe-NH2] | 2.9
